Assay results reported in patent publication US20160193240A1, “Ulmoside-A: Useful For Prevention Or Cure Of Metabolic Diseases” (COUNCIL OF SCIENTIFIC & INDUSTRIAL RESEARCH, priority 2013, published 2016).
Marks after values point to notes of the source that are not given here.

Experiments:
[1] = system: wistar rats; test: Dexamethasone-mediated imbalance in serum Na, K level in rats; type: in vivo, rat; conditions: Dex + ULMA, 14 days
Protocol: Food intake was measured daily and the rats were weighed each week. The rats were fasted overnight (O/N) on day 14th and on day 15th oral glucose tolerance test was performed. Following oral glucose tolerance test (OGTT), rats were kept with food and water ad libitum for one day. On day 16th, rats were fasted again O/N and then euthanized. At autopsy, from 5 animals/group, tissues were collected and snap frozen in liquid nitrogen. Blood was collected from cardiac punctures. Plasma was separated from whole blood by centrifugation at 3000 rpm for 20 min immediately after collection of blood and stored at −80° C. until further analysis. Forelimb (quadriceps) skeletal muscles were processed for RNA and protein extraction, followed by quantitative real-time PCR (QRT-PCR) analysis. Two animals from each group were used for photography post autopsy.

[2] = system: C2C12 myotubes; test: Glucose uptake assay (3H-deoxyglucose) in C2C12 myotubes; type: cell-based, mouse; conditions: 10 nM
Protocol: A. ULMA enhances glucose uptake in C2C12 myotubes. C2C12 myotubes in 24 well plates were treated with vehicle (DMSO) or 10 nM ULMA and glucose uptake assay was performed in presence or absence of 100 nM insulin. Data is mean±SEM of six independent experiments performed in triplicates. *p<0.05, **p<0.01, ***p<0.001 as determined by two tailed unpaired student's t-test.
C. siAdipoR1 eliminates ULMA induction of glucose uptake. C2C12 myotubes were transfected with nonsilencing siC or siAdipoR1. 72 h after transfection, cells were treated for 24 h with 10 nM ULMA and glucose uptake assay was performed. Data is mean±SEM of three independent experiments performed in triplicates. ***p<0.001 as determined by two tailed unpaired student's t-test.
Adiponectin is known to enhance glucose uptake and fatty acid oxidation in skeletal muscle and myotubes (T. Kadowaki, T. Yamauchi, N. Kubota, K. Hara, K. Ueki, K. Tobe. J Clin Invest. 116(7): 1784-1792. 2006; T. Yamauchi, J. Kamon, Y. Ito, A. Tsuchida, T. Yokomizok, S. Kita, T. Sugiyama, M. Miyagishi, K. Hara, M. Tsunodaq, K. Murakamiq, T. Ohteki, S. Uchida, S. Takekawa, H. Waki, N. H. Tsuno, Y. Shibata, Y. Terauchi, P. Froguel, K. Tobe, S. Koyasu, K. Taira, T. Kitamura, T. Shimizuk, R. Nagai, T. Kadowaki. Nature. 423(6941):762-769. 2003). Therefore the ability of ULMA to influence insulin-dependent and independent glucose uptake and fatty acid oxidation was investigated in C2C12 myotubes. […] Subsequently, the cells were lysed in 100 μl 0.5N NaOH and 5 μl lysate was used for protein concentration determination, and rest of the lysate was used to measure cellular radioactivity in a beta-counter (Beckman Coulter). […] Radioactivity that had become adsorbed onto the filter discs was then quantified by liquid scintillation counting in a beta-counter (Beckman Coulter). The cells were lysed with 200 μl 0.5N NaOH and 5 μl of the lysate was used for protein estimation using Bradford assay and the radioactivity was normalized with the protein content.

[3] = system: Mouse stromal vascular fractions (SVF); test: Brown adipose marker expression and mitochondrial copy number in mouse stromal vascular fractions; type: cell-based
Protocol: B. Mouse stromal vascular fractions (SVF) isolated from epididymal fat pads using collagenase digestion was differentiated in presence or absence of 10 nM ULMA and were analyzed for indicated mRNA expressions. **p<0.01, ***p<0.001 as determined by two tailed unpaired student's t-test.
C. Cells from identical set of experiments as described in FIGS. 5A and 5B or human SVFs prepared by collagenase digestions were analyzed by western blot analysis for determination of UCP-1, UCP-2 and PGC-1α protein level. Beta-actin was used as a loading control. Data is representative of three independent experiments.
D. Mouse SVFs differentiated in presence or absence of 10 nM ULMA were evaluated for mitochondrial copy number. Total cellular DNA was isolated from these cells by standard procedure (using a genomic DNA isolation kit; Macherey Nagel; according to manufacturer's instructions) and the mitochondrial DNA content was measured by QRT-PCR based measurement of mitochondrial cytochrome b (Cytb) by qPCR and normalized with genomic glycerol three phosphate dehydrogenase DNA level. Data represent mean±SEM from three independent experiments performed in triplicates. **p<0.01 as determined by two tailed unpaired student's t-test.
Mouse stromal vascular fractions (SVF) from epididymal fat pad were prepared using standard collagenase digestion method. Human SVF was prepared from human lipoaspirates (subcutaneous) collected from an obese individual undergoing liposuction following approval of Institutional Ethical Committee. To isolate SVFs, epidymal fat pads tissue or lipoaspirates were washed 6× in PBS and then were dispensed in tissue culture flasks. 0.2% sterile collagenase (Sigma) solution containing 1× antibiotic-antimycotic (Invitrogen) was then added to the adipose and the flasks were shaken vigorously for 10 seconds. The flasks were then incubated at 37° C. on a shaker for 2 hours with manual shaking of the flasks for 5-10 seconds every 15 min. After completion of digestion, FBS was added to the final concentration of 10% to the flasks, mixed and the collagenase digested tissue were then dispensed in 50 ml conical tubes and were centrifuged at 400 g for 10 min at room temp. The supernatant was discarded and the pellets constituting the SVFs were then reconstituted in culture medium (DMEM/F12 50:50+10% FBS) and plated in T25 tissue culture flasks and cultured for further experiments.
The SVFs were differentiated as for 3T3L-1 (described above), in presence of ULMA or vehicle (10 d for mouse SVF and 21 d for human SVF), following which they were lysed and used for QPCR or western blot analysis.
For western blot-based determination of UCP-1, UCP-2 and PGC-1α protein level, cells from an identical set of experiment were lysed and western blotted with UCP-1, UCP-2 (Abcam), PGC-1α(Calbiochem), or beta-actin (cell signaling technology; used as a loading control) as described above.

[4] = differentiated in presence of ULMA, 10 d

## O=C1c2c(cc(O)c([C@@H]3O[C@H](CO)[C@@H](O)[C@H](O)[C@H]3O)c2O)O[C@@H](c2ccc(O)c(O)c2)[C@@H]1O [ULMA, (2S,3S)-(+)-3′,4′,5,7-tetrahydroxydihydroflavonol-6-C-β-D-glucopyranoside]
[1]
  Na (mmol/l): 124 ± 3.7^a mmol/l
  serum K: 3.93 ± 0.08 mM
[2]; 24 h, 72 h after siRNA transfection
  ULMA-induced glucose uptake with siAdipoR1 (not siC): completely eliminated
[2]; 24 hours
  glucose uptake in absence of insulin: enhanced
[2]; 24 hours, 100 nM insulin 20 min
  glucose uptake in presence of insulin: enhanced
[3]; 10 nM, 10 d differentiation
  PGC-1α mRNA level: significant increase
  PRDM16 mRNA level: significant increase
  UCP-1 mRNA level: significant increase
  UCP-2 mRNA level: significant increase
[3]; 10 nM, differentiated mouse SVFs
  mitochondrial DNA copy number (cytb level): significantly higher
[3]; [4]
  PGC-1α protein level: elevated
  UCPs protein level: elevated
